Experimental data: patent US20150105252A1, “SUBSTITUTED PYRAZOLES AS HERBICIDES” (E I DU PONT DE NEMOURS AND COMPANY, priority 2013, published 2015)

How the values were obtained:
Conditions in all cases: scale 0 to 100
[1] = tested on: pigweed; experiment: Test D postemergence; assay type: in vivo, Amaranthus retroflexus
In short: (§1)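 Visual 0-100 rating (100 = complete control) against untreated plants, made 14 to 21 days after treatment in a controlled environment. Compounds, formulated with surfactant in non-phytotoxic solvent, were applied either to seeds just sown in silt loam or to 1- to 4-leaf plants (2 to 18 cm) grown in peat-based medium.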

[2] = tested on: deadnettle; experiment: Test D postemergence; assay type: in vivo, Lamium amplexicaule
In short: as §1

[3] = tested on: bromegrass, downy; experiment: Test D preemergence; assay type: in vivo, Bromus tectorum
In short: as §1

[4] = tested on: field violet; experiment: Test D preemergence; assay type: in vivo, Viola arvensis
In short: as §1

[5] = tested on: deadnettle; experiment: Test D preemergence; assay type: in vivo, Lamium amplexicaule
In short: as §1

[6] = tested on: mustard, wild; experiment: Test D preemergence; assay type: in vivo, Sinapis arvensis
In short: as §1

[7] = tested on: windgrass; experiment: Test D preemergence; assay type: in vivo, Apera spica-venti
In short: as §1

[8] = tested on: buckwheat, wild; experiment: Test D preemergence; assay type: in vivo, Polygonum convolvulus
In short: as §1

[9] = tested on: bluegrass; experiment: Test D postemergence; assay type: in vivo, Poa annua
In short: as §1

[10] = tested on: windgrass; experiment: Test D postemergence; assay type: in vivo, Apera spica-venti
In short: as §1

[11] = tested on: field poppy; experiment: Test D postemergence; assay type: in vivo, Papaver rhoeas
In short: as §1

[12] = tested on: barley, spring; experiment: Test D postemergence; assay type: in vivo, Hordeum vulgare
In short: as §1

[13] = tested on: barley, winter; experiment: Test D postemergence; assay type: in vivo, Hordeum vulgare
In short: as §1

[14] = tested on: blackgrass; experiment: Test D preemergence; assay type: in vivo, Alopecurus myosuroides
In short: as §1

[15] = tested on: oat, wild; experiment: Test D postemergence; assay type: in vivo, Avena fatua
In short: as §1

[16] = tested on: galium; experiment: Test D preemergence; assay type: in vivo, Galium aparine
In short: as §1

CCCc1cc(C(=O)NCC(F)(F)F)nn1Cc1cc(C(F)(F)F)nn1C [Compound 138]
45: Plant response rating, Windgrass ([7]; 62 g ai/ha) | Plant response rating, Buckwheat, Wild ([8]; 31 g ai/ha)
25: Barley, Spring plant response rating ([12]; Postemergence, 125 g ai/ha) | Oat, Wild plant response rating ([15]; Postemergence, 125 g ai/ha)
100: Plant response rating, Field Violet ([4]; 62 g ai/ha) | Plant response rating, Field Violet ([4]; 125 g ai/ha) | Plant response rating, Field Violet ([4]; 250 g ai/ha) | Plant response rating, Deadnettle ([5]; 62 g ai/ha) | Plant response rating, Deadnettle ([5]; 125 g ai/ha) | Plant response rating, Deadnettle ([5]; 250 g ai/ha) | Plant response rating, Mustard, Wild ([6]; 62 g ai/ha) | Plant response rating, Mustard, Wild ([6]; 125 g ai/ha) | Plant response rating, Mustard, Wild ([6]; 250 g ai/ha) | Plant response rating, Windgrass ([7]; 125 g ai/ha) | Plant response rating, Windgrass ([7]; 250 g ai/ha) | Plant response rating, Buckwheat, Wild ([8]; 250 g ai/ha) | Plant response rating, Blackgrass ([14]; 250 g ai/ha) | Plant response rating, Galium ([16]; 62 g ai/ha) | Plant response rating, Galium ([16]; 125 g ai/ha) | Plant response rating, Galium ([16]; 250 g ai/ha)
40: Barley, Spring plant response rating ([12]; Postemergence, 250 g ai/ha) | Barley, Winter plant response rating ([13]; Postemergence, 250 g ai/ha)
65: Deadnettle plant response rating ([2]; Postemergence, 31 g ai/ha) | Deadnettle plant response rating ([2]; postemergence, 62 g ai/ha) | Plant response rating, Bromegrass, Downy ([3]; 250 g ai/ha) | Field Poppy plant response rating ([11]; Postemergence, 125 g ai/ha)
50: Plant response rating, Buckwheat, Wild ([8]; 62 g ai/ha)
70: Plant response rating, Buckwheat, Wild ([8]; 125 g ai/ha)
75: Deadnettle plant response rating ([2]; Postemergence, 125 g ai/ha) | Field Poppy plant response rating ([11]; Postemergence, 250 g ai/ha)
15: Plant response rating, Bromegrass, Downy ([3]; 62 g ai/ha) | Bluegrass plant response rating ([9]; Postemergence, 31 g ai/ha) | Bluegrass plant response rating ([9]; postemergence, 62 g ai/ha) | Barley, Spring plant response rating ([12]; Postemergence, 31 g ai/ha) | Barley, Spring plant response rating ([12]; postemergence, 62 g ai/ha) | Barley, Winter plant response rating ([13]; Postemergence, 31 g ai/ha) | Barley, Winter plant response rating ([13]; postemergence, 62 g ai/ha) | Plant response rating, Blackgrass ([14]; 31 g ai/ha)
55: Field Poppy plant response rating ([11]; Postemergence, 31 g ai/ha) | Field Poppy plant response rating ([11]; postemergence, 62 g ai/ha)
90: Pigweed plant response rating ([1]; Postemergence, 31 g ai/ha) | Pigweed plant response rating ([1]; Postemergence, 125 g ai/ha) | Pigweed plant response rating ([1]; Postemergence, 250 g ai/ha) | Pigweed plant response rating ([1]; postemergence, 62 g ai/ha)
35: Windgrass plant response rating ([10]; Postemergence, 125 g ai/ha)
85: Deadnettle plant response rating ([2]; Postemergence, 250 g ai/ha) | Plant response rating, Deadnettle ([5]; 31 g ai/ha) | Plant response rating, Blackgrass ([14]; 125 g ai/ha)
10: Plant response rating, Bromegrass, Downy ([3]; 31 g ai/ha)
30: Bluegrass plant response rating ([9]; Postemergence, 125 g ai/ha) | Plant response rating, Blackgrass ([14]; 62 g ai/ha)
60: Bluegrass plant response rating ([9]; Postemergence, 250 g ai/ha) | Windgrass plant response rating ([10]; Postemergence, 250 g ai/ha) | Oat, Wild plant response rating ([15]; Postemergence, 250 g ai/ha)
20: Plant response rating, Bromegrass, Downy ([3]; 125 g ai/ha) | Windgrass plant response rating ([10]; Postemergence, 31 g ai/ha) | Windgrass plant response rating ([10]; postemergence, 62 g ai/ha) | Barley, Winter plant response rating ([13]; Postemergence, 125 g ai/ha) | Oat, Wild plant response rating ([15]; Postemergence, 31 g ai/ha) | Oat, Wild plant response rating ([15]; postemergence, 62 g ai/ha)

CCOc1cc(C(=O)NC(C)C)nn1Cc1ccnc(C(F)(F)F)c1 [Compound 188]
20: Plant response rating, Bromegrass, Downy ([3]; 31 g ai/ha) | Bluegrass plant response rating ([9]; Postemergence, 31 g ai/ha) | Bluegrass plant response rating ([9]; postemergence, 62 g ai/ha) | Windgrass plant response rating ([10]; Postemergence, 31 g ai/ha) | Windgrass plant response rating ([10]; postemergence, 62 g ai/ha)
65: Barley, Spring plant response rating ([12]; Postemergence, 250 g ai/ha) | Barley, Winter plant response rating ([13]; Postemergence, 250 g ai/ha)
95: Field Poppy plant response rating ([11]; Postemergence, 250 g ai/ha) | Plant response rating, Galium ([16]; 62 g ai/ha)
75: Plant response rating, Bromegrass, Downy ([3]; 62 g ai/ha) | Field Poppy plant response rating ([11]; Postemergence, 125 g ai/ha) | Plant response rating, Blackgrass ([14]; 62 g ai/ha)
30: Bluegrass plant response rating ([9]; Postemergence, 125 g ai/ha)
15: Barley, Spring plant response rating ([12]; Postemergence, 31 g ai/ha) | Barley, Spring plant response rating ([12]; postemergence, 62 g ai/ha) | Barley, Winter plant response rating ([13]; Postemergence, 31 g ai/ha) | Barley, Winter plant response rating ([13]; postemergence, 62 g ai/ha) | Oat, Wild plant response rating ([15]; Postemergence, 31 g ai/ha) | Oat, Wild plant response rating ([15]; postemergence, 62 g ai/ha)
80: Pigweed plant response rating ([1]; Postemergence, 250 g ai/ha)
25: Barley, Spring plant response rating ([12]; Postemergence, 125 g ai/ha) | Oat, Wild plant response rating ([15]; Postemergence, 125 g ai/ha)
85: Plant response rating, Bromegrass, Downy ([3]; 125 g ai/ha)
55: Deadnettle plant response rating ([2]; Postemergence, 250 g ai/ha) | Plant response rating, Blackgrass ([14]; 31 g ai/ha)
40: Pigweed plant response rating ([1]; Postemergence, 31 g ai/ha) | Pigweed plant response rating ([1]; postemergence, 62 g ai/ha) | Barley, Winter plant response rating ([13]; Postemergence, 125 g ai/ha)
100: Plant response rating, Bromegrass, Downy ([3]; 250 g ai/ha) | Plant response rating, Field Violet ([4]; 62 g ai/ha) | Plant response rating, Field Violet ([4]; 125 g ai/ha) | Plant response rating, Field Violet ([4]; 250 g ai/ha) | Plant response rating, Deadnettle ([5]; 31 g ai/ha) | Plant response rating, Deadnettle ([5]; 62 g ai/ha) | Plant response rating, Deadnettle ([5]; 125 g ai/ha) | Plant response rating, Deadnettle ([5]; 250 g ai/ha) | Plant response rating, Mustard, Wild ([6]; 62 g ai/ha) | Plant response rating, Mustard, Wild ([6]; 125 g ai/ha) | Plant response rating, Mustard, Wild ([6]; 250 g ai/ha) | Plant response rating, Windgrass ([7]; 62 g ai/ha) | Plant response rating, Windgrass ([7]; 125 g ai/ha) | Plant response rating, Windgrass ([7]; 250 g ai/ha) | Plant response rating, Buckwheat, Wild ([8]; 31 g ai/ha) | Plant response rating, Buckwheat, Wild ([8]; 62 g ai/ha) | Plant response rating, Buckwheat, Wild ([8]; 125 g ai/ha) | Plant response rating, Buckwheat, Wild ([8]; 250 g ai/ha) | Plant response rating, Blackgrass ([14]; 125 g ai/ha) | Plant response rating, Blackgrass ([14]; 250 g ai/ha) | Plant response rating, Galium ([16]; 125 g ai/ha) | Plant response rating, Galium ([16]; 250 g ai/ha)
35: Deadnettle plant response rating ([2]; Postemergence, 31 g ai/ha) | Deadnettle plant response rating ([2]; postemergence, 62 g ai/ha) | Bluegrass plant response rating ([9]; Postemergence, 250 g ai/ha) | Windgrass plant response rating ([10]; Postemergence, 125 g ai/ha)
70: Oat, Wild plant response rating ([15]; Postemergence, 250 g ai/ha)
45: Deadnettle plant response rating ([2]; Postemergence, 125 g ai/ha) | Windgrass plant response rating ([10]; Postemergence, 250 g ai/ha)
60: Pigweed plant response rating ([1]; Postemergence, 125 g ai/ha) | Field Poppy plant response rating ([11]; Postemergence, 31 g ai/ha) | Field Poppy plant response rating ([11]; postemergence, 62 g ai/ha)
